Measurements from publication PMC10278063 (ACS Chemical Biology, 2023).
Where “and” joins values, the source holds several entries; their conditions need not be identical. Equal entries are not always repeated. No end group written: not given here. *: point of attachment. ClAc = O=C(CCl)*

System: PSMD2
Assay type: binding, human

Row | Substance | ELISA S/N | PSMD2 binding compared with MC3
1 | ClAc-FRRNVNWWRLYC (also: sidechain bridge or staple (positions not given here)) [hit 5] | > 30 | equivalent or better binding
2 | ClAc-FSALRHIAIFRYC (also: sidechain bridge or staple (positions not given here)) [hit 2] | > 30 | equivalent or better binding
3 | ClAc-FSRNAGFWARYC (also: sidechain bridge or staple (positions not given here)) [hit 3] | 49.0 and > 30 | equivalent or better binding
